Tests used:
[1] = test system: IL3000 T. congolense (drug sensitive) strain; assay: In vitro Alamar Blue 72 h drug sensitivity assay for T. congolense; format: cell-based, Trypanosoma congolense; conditions: Trypanosoma congolense, 72 h, bloodstream form, 69 h + 3 h Resazurin, 34° C., read-out: IC50: I Org. Growth T. congolense 3 d
Outline: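 Bloodstream-form trypanosomes in HMI medium with 20% bovine serum were exposed to compounds for 69 h at 34° C, 5% CO2, then resazurin for another 3 h. Fluorescence read at ex 536/em 588 nm; IC50 from 11-point sigmoidal dose-response curves, at least three independent runs.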

[2] = test system: T. cruzi amastigote (Td Tomato-modified) in Vero cells; assay: In vitro IC50 measurement of T. cruzi amastigote killing using Td Tomato-modified T. cruzi; format: cell-based; conditions: Trypanosoma cruzi, 72 h, fluorescence, read-out: IC50: I Org. amastigote Growth T. cruzi 3 d
Outline: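 Vero cells infected with Td Tomato-expressing T. cruzi, treated with compound at 5 uM to 5 nM final, incubated 72 h at 37 °C. Fluorescence (Ex 544/Em 612 nm) read at Day 0 and Day 3, Day 0 subtracted; IC50 and IC90 by nonlinear regression.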

Compound	IC50 [1] [nM]	IC50 [2] [nM]
Cc1c(C(=O)N[C@H](C(=O)OCc2ccc(F)cn2)C(C)C)ccc2c1B(O)OC2 [Example 6-067, (5-Fluoropyridin-2-yl)methyl (1-hydroxy-7-methyl-1,3-dihydrobenzo[c][1,2]oxaborole-6-carbonyl)-L-valinate]	< 0.5	≤ 20
COC(=O)[C@@H](NC(=O)c1ccc2c(c1C)B(O)OC2)C(C)C [Example 6-069, Methyl (1-hydroxy-7-methyl-1,3-dihydrobenzo[c][1,2]oxaborole-6-carbonyl)-L-valinate]	0.51 to 9.99	21 to 999
CC(C)[C@H](NC(=O)c1ccc2c(c1C(F)(F)F)B(O)OC2)C(=O)OCc1ccccc1 [Example 6-071, Benzyl (1-hydroxy-7-(trifluoromethyl)-1,3-dihydrobenzo[c][1,2]oxaborole-6-carbonyl)-L-valinate]	10 to 5000	21 to 999
Cc1c(C(=O)N[C@H](C(=O)OCc2cccc(N3CCN(C)CC3)c2)C(C)C)ccc2c1B(O)OC2 [Example 6-072, 3-(4-Methylpiperazin-1-yl)benzyl (1-hydroxy-7-methyl-1,3-dihydrobenzo[c][1,2]oxaborole-6-carbonyl)-L-valinate]	< 0.5	≤ 20
CC(C)[C@H](NC(=O)c1ccc2c(c1C(F)F)B(O)OC2)C(=O)OCc1ccc(F)cc1 [Example 6-073, 4-Fluorobenzyl (7-(difluoromethyl)-1-hydroxy-1,3-dihydrobenzo[c][1,2]oxaborole-6-carbonyl)-L-valinate]	0.51 to 9.99	≤ 20
Cc1c(C(=O)N[C@H](C(=O)OCc2ccc(F)cc2)[C@@H](C)O)ccc2c1B(O)OC2 [Example 6-074, 4-Fluorobenzyl (1-hydroxy-7-methyl-1,3-dihydrobenzo[c][1,2]oxaborole-6-carbonyl)-L-threoninate]	< 0.5	21 to 999
Cc1c(C(=O)N[C@H](C(=O)OCc2ccc(NS(C)(=O)=O)cc2)C(C)C)ccc2c1B(O)OC2 [Example 6-075, 4-(Methylsulfonamido)benzyl (1-hydroxy-7-methyl-1,3-dihydrobenzo[c][1,2]oxaborole-6-carbonyl)-L-valinate]	10 to 5000	≥ 1000
CCc1c(C(=O)N[C@H](C(=O)OCc2ccc(S(C)(=O)=O)cc2)C(C)C)ccc2c1B(O)OC2 [Example 6-076, 4-(Methylsulfonyl)benzyl (7-ethyl-1-hydroxy-1,3-dihydrobenzo[c][1,2]oxaborole-6-carbonyl)-L-valinate]	0.51 to 9.99	21 to 999
Cc1c(C(=O)N[C@H](C(=O)OCc2ccc(F)cc2)[C@@H](C)OCc2ccccc2)ccc2c1B(O)OC2 [Example 6-077, 4-Fluorobenzyl O-benzyl-N-(1-hydroxy-7-methyl-1,3-dihydrobenzo[c][1,2]oxaborole-6-carbonyl)-L-threoninate]	0.51 to 9.99	≤ 20
Cc1c(C(=O)N[C@H](C(=O)OCc2cccc(S(C)(=O)=O)c2)C(C)C)ccc2c1B(O)OC2 [Example 6-080, 3-(Methylsulfonyl)benzyl (1-hydroxy-7-methyl-1,3-dihydrobenzo[c][1,2]oxaborole-6-carbonyl)-L-valinate]	0.51 to 9.99	21 to 999
Cc1c(C(=O)N[C@H](C(=O)OCc2cccc(CN(C)C)c2)C(C)C)ccc2c1B(O)OC2 [Example 6-081, 3-((Dimethylamino)methyl)benzyl (1-hydroxy-7-methyl-1,3-dihydrobenzo[c][1,2]oxaborole-6-carbonyl)-L-valinate]	< 0.5	21 to 999
Cc1c(C(=O)N[C@H](C(=O)OCc2cccc(CN3CCN(C)CC3)c2)C(C)C)ccc2c1B(O)OC2 [Example 6-082, 3-((4-Methylpiperazin-1-yl)methyl)benzyl (1-hydroxy-7-methyl-1,3-dihydrobenzo[c][1,2]oxaborole-6-carbonyl)-L-valinate]	0.51 to 9.99	21 to 999
Cc1c(C(=O)N[C@H](C(=O)OCc2cccc(CN3CCOCC3)c2)C(C)C)ccc2c1B(O)OC2 [Example 6-083, 3-(Morpholinomethyl)benzyl (1-hydroxy-7-methyl-1,3-dihydrobenzo[c][1,2]oxaborole-6-carbonyl)-L-valinate]	< 0.5	≤ 20
Cc1c(C(=O)N[C@H](C(=O)OCc2ccc(S(=O)(=O)N3CCN(C)CC3)cc2)C(C)C)ccc2c1B(O)OC2 [Example 6-085, 4-((4-Methylpiperazin-1-yl)sulfonyl)benzyl (1-hydroxy-7-methyl-1,3-dihydrobenzo[c][1,2]oxaborole-6-carbonyl)-L-valinate]	0.51 to 9.99	21 to 999
Cc1c(C(=O)N[C@H](C(=O)OCc2ccc(S(=O)(=O)N3CCOCC3)cc2)C(C)C)ccc2c1B(O)OC2 [Example 6-086, 4-(Morpholinosulfonyl)benzyl (1-hydroxy-7-methyl-1,3-dihydrobenzo[c][1,2]oxaborole-6-carbonyl)-L-valinate]	< 0.5	21 to 999
Cc1c(C(=O)N[C@@H](C(=O)OCc2ccc(F)cc2)C(C)C)ccc2c1B(O)OC2 [Example 6-087, 4-Fluorobenzyl (1-hydroxy-7-methyl-1,3-dihydrobenzo[c][1,2]oxaborole-6-carbonyl)-D-valinate]	10 to 5000	≥ 1000
Cc1c(C(=O)N[C@H](C(=O)OCc2ccc([S+](C)[O-])cc2)C(C)C)ccc2c1B(O)OC2 (stereo partly drawn) [Example 6-090, 4-(Methylsulfinyl)benzyl (1-hydroxy-7-methyl-1,3-dihydrobenzo[c][1,2]oxaborole-6-carbonyl)-L-valinate]	0.51 to 9.99	21 to 999
Cc1c(C(=O)NC(C(=O)OCc2ccc(F)cc2)C(C)(C)F)ccc2c1B(O)OC2 (stereo not shown) [Example 6-091, 4-Fluorobenzyl 3-fluoro-2-(1-hydroxy-7-methyl-1,3-dihydrobenzo[c][1,2]oxaborole-6-carboxamido)-3-methylbutanoate]	< 0.5	≤ 20
Cc1c(C(=O)N[C@H](C(=O)OCc2ccc(S(=O)(=O)C(C)C)cc2)C(C)C)ccc2c1B(O)OC2 [Example 6-092, 4-(Isopropylsulfonyl)benzyl (1-hydroxy-7-methyl-1,3-dihydrobenzo[c][1,2]oxaborole-6-carbonyl)-L-valinate]	< 0.5	21 to 999
CCS(=O)(=O)c1ccc(COC(=O)[C@@H](NC(=O)c2ccc3c(c2C)B(O)OC3)C(C)C)cc1 [Example 6-093, 4-(Ethylsulfonyl)benzyl (1-hydroxy-7-methyl-1,3-dihydrobenzo[c][1,2]oxaborole-6-carbonyl)-L-valinate]	0.51 to 9.99	21 to 999
CC[S+]([O-])c1ccc(COC(=O)[C@@H](NC(=O)c2ccc3c(c2C)B(O)OC3)C(C)C)cc1 (stereo partly drawn) [Example 6-094, 4-(Ethylsulfinyl)benzyl (1-hydroxy-7-methyl-1,3-dihydrobenzo[c][1,2]oxaborole-6-carbonyl)-L-valinate]	0.51 to 9.99	21 to 999
Cc1c(C(=O)N[C@H](C(=O)OCCN2CCCC2)C(C)C)ccc2c1B(O)OC2 [Example 6-095, 2-(Pyrrolidin-1-yl)ethyl (1-hydroxy-7-methyl-1,3-dihydrobenzo[c][1,2]oxaborole-6-carbonyl)-L-valinate]	0.51 to 9.99	≥ 1000
Cc1c(C(=O)N[C@H](C(=O)OCc2ccc(F)cc2)[C@H](C)OCc2ccc(F)cc2)ccc2c1B(O)OC2 [Example 6-097, 4-Fluorobenzyl O-(4-fluorobenzyl)-N-(1-hydroxy-7-methyl-1,3-dihydrobenzo[c][1,2]oxaborole-6-carbonyl)-L-allothreoninate]	0.51 to 9.99	21 to 999
Cc1c(C(=O)N[C@H](C(=O)OCc2ccc(F)c(F)c2)C(C)(C)O)ccc2c1B(O)OC2 [Example 6-098, 3,4-Difluorobenzyl (S)-3-hydroxy-2-(1-hydroxy-7-methyl-1,3-dihydrobenzo[c][1,2]oxaborole-6-carboxamido)-3-methylbutanoate]	< 0.5	≤ 20
Cc1c(C(=O)N[C@H](C(=O)OCc2cc(F)cc(F)c2)C(C)(C)O)ccc2c1B(O)OC2 [Example 6-099, 3,5-Difluorobenzyl (S)-3-hydroxy-2-(1-hydroxy-7-methyl-1,3-dihydrobenzo[c][1,2]oxaborole-6-carboxamido)-3-methylbutanoate]	< 0.5	21 to 999
Cc1c(C(=O)N[C@H](C(=O)OCc2cc(F)c(F)c(F)c2)C(C)C)ccc2c1B(O)OC2 [Example 6-100, 3,4,5-Trifluorobenzyl (1-hydroxy-7-methyl-1,3-dihydrobenzo[c][1,2]oxaborole-6-carbonyl)-L-valinate]	< 0.5	≤ 20
Cc1c(C(=O)N[C@H](C(=O)OCc2cc(F)c(F)c(F)c2)C(C)(C)O)ccc2c1B(O)OC2 [Example 6-101, 3,4,5-Trifluorobenzyl(S)-3-hydroxy-2-(1-hydroxy-7-methyl-1,3-dihydrobenzo[c][1,2]oxaborole-6-carboxamido)-3-methylbutanoate]	< 0.5	≤ 20
Cc1c(C(=O)N[C@H](C(=O)OCc2ccc(C(=O)N3CCNCC3)cc2)C(C)C)ccc2c1B(O)OC2 [Example 6-102, 4-(Piperazine-1-carbonyl)benzyl (1-hydroxy-7-methyl-1,3-dihydrobenzo[c][1,2]oxaborole-6-carbonyl)-L-valinate]	10 to 5000	≥ 1000
Cc1c(C(=O)N[C@H](C(=O)OCc2ccc(C(=O)NCCN(C)C)cc2)C(C)C)ccc2c1B(O)OC2 [Example 6-103, 4-((2-(Dimethylamino)ethyl)carbamoyl)benzyl (1-hydroxy-7-methyl-1,3-dihydrobenzo[c][1,2]oxaborole-6-carbonyl)-L-valinate]	10 to 5000	≥ 1000

Reference: patent publication US11578087B2, “Oxaborole esters and uses thereof” (priority 2016, dated 2023)
